Data published in US20090221989A1, “SYSTEM AND METHOD FOR THE PREVENTION AND TREATMENT OF BACTERIAL AND FUNGAL INFECTIONS INCLUDING URINARY TRACT INFECTIONS (UTI) USING A HYPOHALOUS ACID COMPOSITION” (Novabay Pharmaceuticals Inc, priority 2005, published 2009).

Columns and labels:
[1] = tested on: Proteus mirabilis ATCC 29245 biofilm; assay: Biofilm disinfection on 1-cm Foley catheter pieces, plate count; type: cell-based; settings: HOCl 2 mM in 0.9% saline pH 3.5, 48 h biofilm
Procedure: (§1) We have devised a dynamic in vitro model using traditional microbiological methods to assess the antimicrobial efficacy of 2 mM HOCl in 0.9% saline at pH 3.5, as compared to physiological saline in disinfecting intra-luminal and extra-luminal indwelling Foley catheter.
(§2) Foley Catheter, manufactured by BARD HOCl (2 mM) in 0.9% saline pH 3.5 (150 mM) Escherichia coli ATCC 25922 Proteus mirabilis ATCC 29245
(§3) Neutralizer Broth: A broth containing dextrose, lecithin, sodium thiosulfate, pancreatic digest of casein, Tween® 80, yeast extract, sodium bisulfate, sodium thioglycollate, monopotassium phosphate, and bromcresol purple.
(§4) The ability of HOCl to destroy biofilm formation was evaluated as follows. First, biofilm was established on 1-cm-long pieces of catheter for 48 hours in nutrient broth in the presence of either Proteus mirabilis or Escherichia coli. Subsequently, the biofilm-bearing pieces of catheter were exposed to 2 mM HOCl in 0.9% saline at pH 3.5 over various periods of time. After the exposures the pieces of catheter were transferred into 1 mL of neutralizer broth to stop the reaction. 0.1 mL (10%) of the neutralizer broth was then plated out onto nutrient agar and the number of colonies was counted. The CFU (Colony Forming Unit) values obtained were multiplied by 10 to obtain the actual CFU/mL values per treated sample.

[2] = tested on: Escherichia coli ATCC 25922 biofilm; assay: as above; type: cell-based; settings: HOCl 2 mM in 0.9% saline pH 3.5, 48 h biofilm
Procedure: as §1, §2, §3, §4

[3] = tested on: urease positive Escherichia coli ATCC 25922 biofilm; assay: Biofilm eradication in in vitro urinary catheter flow model; type: cell-based; settings: for Log (CFU/cm2) / Log reduction: pH 4, 0.9% NaCl; for Log (CFU/cm2): 3-day biofilm, 10 min flow + 30 min stationary, average of 9 treatments; for Log reduction: versus saline
Procedure: A test system was established which utilized size 14 Foley catheters (supplied by NovaCal), which were cut and installed into a pre-sterilized flow system (FIG. 1) using aseptic techniques. The system consists of five parallel channels, one channel per catheter. Sterile medium was supplied to the system via a flow-break, to prevent back-growth into the medium reservoir. The entire system was placed in a 37° C. incubator. After conditioning the system with artificial urine medium for 30 minutes, 2.0 ml inoculum from an overnight culture of urease positive Escherichia coli ATCC 25922 grown in artificial urine medium at 37° C. was introduced into the system via the valve closest to the flow break (bladder side of catheter). Each inoculum was tested to confirm urease production. After inoculation, the system remained under static conditions (no flow) for two hours, to allow for bacterial attachment to the catheters. Flow of artificial urine medium was then initiated and maintained at a rate of 0.75 ml/min for 3 days. Initial experiments were conducted to evaluate consistency of biofilm formation in the model system. […] Day 5 and Day 7 counts remained at approximately that level. It was decided that treatment would be performed on Day 3 to prevent the possibility of biofilm detachment occurring. […] Sterile sections of tubing were attached from the syringe to the valve furthest from the flow break (bag end of the catheter). This end is designated as FRONT for sampling purposes. The pump was turned on and the treatments were introduced at 2.0 ml/min for 10 minutes through the catheters. Excess medium and treatment solution was captured in a waste container. After 10 minutes, the syringe pump was turned off and the solutions were left stationary in the catheters for 30 minutes. The solutions were then withdrawn back through the catheter into the syringe, medium flow was resumed for a 30 minute rinse time and the catheters were then sampled. For efficient sampling: Each catheter was divided into 3 segments (front, middle, end) and each segment was subsampled. One subsample was used to determine bacterial populations by plate count, another subsample was analyzed by staining with the LIVE/DEAD® BaclightTM bacterial viability kit ([…], Molecular Probes, Oregon, USA) using confocal laser microscopy (CSLM), the third sample was imaged using scanning electron microscopy (SEM). For viable cell counts, a 3.0 centimeter section of tubing was removed and scraped with a sterile stainless steel rod (using aseptic technique) into a tube containing 10.0 ml of sterile phosphate-buffered saline (PBS). The tubes were then sonicated for two minutes and the suspension was vortexed for one minute. The number of viable (culturable) bacteria was enumerated by serial dilution in PBS and plate counts using the spread-plate technique. Results were expressed as CFU/cm^2 and are calculated as follows: The surface area of the internal lumen of the catheter section scraped was determined to be 2.826 cm^2. Three treatment runs were performed on 3 catheters each. One treated with PBS or sterile 0.9% saline as control, one treated with 2 mM HOCl and one treated with 20 mM HOCl. The Log (CFU/cm^2) was calculated from the average of 9 treatments, consisting of 3 treatments of 3 catheter pieces for each Test Article.

[4] = tested on: viable (culturable) bacteria on patient catheter; assay: Ex-vivo treatment of a patient Foley catheter, viable plate counts; type: cell-based
Description: A Foley catheter was removed from a patient by hospital personnel and placed in a sterile bag. In the Bozeman Deaconess Hospital (BDH) lab, the outside of the catheter was wiped down with 70% ethanol. Then the catheter was aseptically cut into 3 catheter portions (bag-end, middle and patient-end). Each portion was cut into 3.0 cm long sections using a ruler and razor blades.
Three of the sections (one bag-end, one middle and one patient-end) designated as control were placed into sterile PBS. Three of the sections (one bag-end, one middle and one patient-end) were placed in 20 mM HOCl. All catheter sections were treated for 30 minutes individually in sterile glass tubes, each with sufficient solution to be immersed completely. After treatment, each 3 cm section was removed from the treatment tubes and the PBS control tubes and placed into a second glass tube containing sterile PBS for a 2 minute rinse in order to remove the treatment solution. The section was then removed from the tube and aseptically cut into 1.0 cm and 2.0 cm pieces. The 2.0 cm piece was placed in a tube containing 10 ml of sterile PBS, vortexed, sonicated and diluted for viable plate counts. The number of viable (culturable) bacteria was enumerated by serial dilution in PBS and plate counts using the spread-plate technique. Samples were plated on blood agar plates. Results will be expressed as colony-forming units/cm^2, CFU/cm^2 (calculated as 2.0 cm length×0.25 cm (radius)×3.14 (pi)=1.57 cm^2). The 1.0 cm piece was placed in 4% formaldehyde solution.

[5] = tested on: E. coli and Pr. mirabilis biofilm; assay: Biofilm disinfection on Foley catheter pieces, both organisms pooled: re-culture OD600, overall CFU, visual examination; type: cell-based, Escherichia coli; Proteus mirabilis; settings: HOCl 2 mM in 0.9% saline pH 3.5
Procedure: as §4, with “sample. In order to measure the amount of live bacteria left on the pieces of catheter following treatment, the biofilm-bearing pieces of catheter were transferred into tubes containing fresh growth medium. After allowing growth in a shaker at 37° C. for 4 hours, Optical Density (OD) was read at 600 nm. […] This was also shown by very low optical density readings (average of 0.057 OD600 units, individual data not listed) following the attempt to re-culture the bacteria from treated catheters.” for “sample.”

[6] = tested on: urease positive Escherichia coli ATCC 25922 biofilm; assay: Biofilm prevention in in vitro urinary catheter flow model; type: cell-based
Procedure: Day 0: The test system, as described in detail above, utilized size 14 Foley catheters, cut and installed into a pre-sterilized flow system using aseptic techniques. Sterile medium was supplied to the system via a flow-break, to prevent back-growth into the medium reservoir. The entire system was placed into a 37 AC incubator. After conditioning the system with artificial urine medium for 30 minutes, each catheter was treated with a disinfectant. 20.0 ml of each treatment solution was loaded into 30 ml syringes and connected to a syringe pump. Sterile sections of tubing were attached from the syringe to the valve furthest from the flow break (bag end of the catheter). This end is designated as FRONT for sampling purposes. The pump was turned on and the treatments were introduced at 2.0 ml/min for 10 minutes through the catheters. Excess medium and treatment solution was captured in a waste container. After 10 minutes, the syringe pump was turned off and the solutions were left stationary in the catheters for 30 minutes. The solutions were then withdrawn back through the catheter into the syringe. The catheters were then rinsed with sterile medium for 30 minutes. On Day 0 only: An inoculum from an overnight culture of urease positive Escherichia coli ATCC 25922 grown in artificial urine medium at 37° C. was introduced into the system via the valve closest to the flow break (bladder side of catheter). Each inoculum was tested for confirmation of urease production. After inoculation, the system remained under static conditions (no flow) for two hours, to allow for bacterial attachment to the catheters. Flow of artificial urine medium was then initiated and maintained at a rate of 0.75 ml/min. Days 1, 3 and 5: For viable cell counts, a 3.0 centimeter section of tubing was removed and scraped with a sterile stainless steel rod (using aseptic technique) into a tube containing 10.0 ml of sterile PBS. The tubes were then sonicated for two minutes and the suspension was vortexed for one minute. The number of viable (culturable) bacteria was enumerated by serial dilution in PBS and plate counts using the spread-plate technique. Results are expressed as CFU/cm^2 and were calculated as described in Phase One. Days 1 and 3: After sampling, the catheters were disinfected and rinsed with sterile medium as described above. Days 2 and 4: the catheters were disinfected and rinsed with sterile medium as described above. No samples were taken. Day 5: Samples were taken for imaging and both ends of the catheter were sampled for viable cell count data.

[7] = HOCl 20 mM, pH 4, 0.9% NaCl, 30 minutes immersion

OCl [HOCl, hypochlorous acid]
CFU/mL ([1]; exposure 5 min): 110 CFU/mL
CFU/mL ([1]; exposure 10 min): 40 CFU/mL
CFU/mL ([1]; exposure 20 min): 50 CFU/mL
CFU/mL ([1]; exposure 30 min): 0 CFU/mL
CFU/mL ([1]; exposure 45 min): 20 CFU/mL
CFU/mL ([1]; exposure 60 min): 0 CFU/mL
CFU/mL ([1]; exposure 120 min): 90 CFU/mL
CFU/mL ([1]; exposure <1 min): >>3000 CFU/mL
CFU/mL ([2]; exposure 5 min): 460 CFU/mL
CFU/mL ([2]; exposure 10 min): 0 CFU/mL
CFU/mL ([2]; exposure 20 min): 0 CFU/mL
CFU/mL ([2]; exposure 30 min): 0 CFU/mL
CFU/mL ([2]; exposure 45 min): 0 CFU/mL
CFU/mL ([2]; exposure 60 min): 0 CFU/mL
CFU/mL ([2]; exposure 120 min): 0 CFU/mL
CFU/mL ([2]; exposure <1 min): 50 CFU/mL
Log (CFU/cm2) ([3]; HOCl 2 mM): 4.8 Log (CFU/cm2)
Log reduction ([3]; HOCl 2 mM): −4.3
bacterial removal, higher versus lower concentration ([3]; HOCl 20 mM versus 2 mM): significantly more bacterial removal than the lower concentration
Log (CFU/cm2) ([3]; HOCl 20 mM): 2.5 Log (CFU/cm2)
Log reduction ([3]; HOCl 20 mM): −6.6
bacterial counts and presence of biofilm (visual interpretation from images) ([3]; HOCl at 2 mM and 20 mM): significantly reduced bacterial counts and the presence of biofilm
Log reduction ([4]; HOCl 20 mM versus sterile PBS, average of 3 pieces): 2.4
Average Log CFU/cm^2 on catheter section after treatment, Bag end [4, 7]: 0.50 Log CFU/cm^2
Average Log CFU/cm^2 on catheter section after treatment, average 3 pieces [4, 7]: 0.53 Log CFU/cm^2
Average Log CFU/cm^2 on catheter section after treatment, middle [4, 7]: 0.58 Log CFU/cm^2
Average Log CFU/cm^2 on catheter section after treatment, patient end [4, 7]: 0.50 Log CFU/cm^2
visual examination of biofilm on catheter surface [5]: subsequent removal
optical density readings after re-culture of treated catheters (average) ([5]; 4 h growth at 37° C. in fresh medium, average, individual data not listed): 0.057 OD600 units
recoverable CFU/mL bacteria ([5]; catheters infected 48 hours): minimal recoverable CFU/mL bacteria
inhibition of biofilm formation ([6]; 5 day duration, 20 mM): appeared to inhibit biofilm formation
viable cell count Day 1 ([6]; Day 1, daily treatment, HOCl 20 mM pH 4 0.9% NaCl, vinegar 1:3 in water, Neomycin 1 ml in 1000 ml saline): 3.5 CFU/cm^2
viable cell count Day 3 ([6]; Day 3, daily treatment, HOCl 20 mM pH 4 0.9% NaCl, vinegar 1:3 in water, Neomycin 1 ml in 1000 ml saline): 0.0 CFU/cm^2
viable cell count Day 5 “Front” (bag end) ([6]; Day 5, bag end, daily treatment, HOCl 20 mM pH 4 0.9% NaCl, vinegar 1:3 in water, Neomycin 1 ml in 1000 ml saline): 0.0 CFU/cm^2
viable cell count Day 5 “End” (bladder end) ([6]; Day 5, bladder end, daily treatment, HOCl 20 mM pH 4 0.9% NaCl, vinegar 1:3 in water, Neomycin 1 ml in 1000 ml saline): 0.0 CFU/cm^2
inhibition of biofilm formation compared to vinegar and Neosporin ([6]; especially by Day 5, 20 mM): significantly better at inhibiting biofilm formation
